Reference: PubChem BioAssay AID720642 (The Scripps Research Institute Molecular Screening Center, 2013)
Calls of active or inactive are those of the source.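 The calls were made as follows: active = EC50 activation potency at or below 10 µM in this mu opioid counterscreen; inactive = EC50 above 10 µM or never reaching half activation.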

molecular target: Mu-type opioid receptor (Homo sapiens) (UniProt P35372); experiment: OPRM1 agonists via beta-arrestin recruitment, late-stage follow-up, counter-screen for mouse HTR2A agonist project, cell-based, luminescence, dose response, powder samples (AID 720642); conditions: U2OS OPRM1 beta-arrestin complementation
Sequence (P35372 whole entry, looked up): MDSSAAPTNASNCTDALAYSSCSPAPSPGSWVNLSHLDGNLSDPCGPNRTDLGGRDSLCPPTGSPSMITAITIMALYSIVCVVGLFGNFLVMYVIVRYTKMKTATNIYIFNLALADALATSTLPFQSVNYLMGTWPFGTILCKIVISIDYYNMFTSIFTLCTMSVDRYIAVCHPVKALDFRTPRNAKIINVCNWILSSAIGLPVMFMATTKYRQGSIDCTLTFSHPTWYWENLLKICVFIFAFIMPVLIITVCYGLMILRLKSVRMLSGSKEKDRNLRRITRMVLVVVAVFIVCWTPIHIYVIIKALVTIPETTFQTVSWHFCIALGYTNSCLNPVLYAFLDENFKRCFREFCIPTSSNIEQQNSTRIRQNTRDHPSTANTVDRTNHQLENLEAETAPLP

SMILES	EC50
CCc1ccc(CN2CCN(C(=O)c3ccco3)CC2)cc1	> 92.5 µM (inactive)
CCOc1cc(CN2CCN(C(=O)c3ccco3)CC2)ccc1OC	> 92.5 µM (inactive)
CN(c1ccc(C(=O)N2CCN(Cc3ccccc3)CC2)cc1)S(=O)(=O)c1ccc(Cl)cc1	> 92.5 µM (inactive)
c1ccc(CN2CCN(c3ncccn3)CC2)cc1	> 92.5 µM (inactive)
COc1ccc(CN2CCN(c3ncccn3)CC2)c(C)c1C	> 92.5 µM (inactive)
c1ccc(N2CCN(Cc3ccsc3)CC2)nc1	> 92.5 µM (inactive)
CCOc1ccc(NC(=O)CCN2CCN(c3ccccc3F)CC2)cc1	> 92.5 µM (inactive)
COc1ccc(CN2CCN(C(=O)c3ccco3)CC2)cc1OCc1ccccc1	> 92.5 µM (inactive)
COc1cccc(OCC(O)CN2CCN(c3ccccn3)CC2)c1 (centres undefined)	> 92.5 µM (inactive)
CCCN1CCC[C@H](c2cccc(O)c2)C1	> 92.5 µM (inactive)
COc1ccccc1C(=O)NCCN1CCN(c2ccccc2)CC1	> 92.5 µM (inactive)
CC1(C)C(C=C(Cl)Cl)C1C(=O)N1CCN(Cc2ccccc2)CC1 (centres undefined)	> 92.5 µM (inactive)
O=C(CN1CCN(c2ccccn2)CC1)Nc1ccc(Oc2ccccc2)cc1	> 92.5 µM (inactive)
Cc1ccc(CN2CCN(c3ccccn3)CC2)s1	> 92.5 µM (inactive)
Fc1ccc(F)c(CN2CCN(c3ncccn3)CC2)c1	> 92.5 µM (inactive)
Cc1cccc(CN2CCN(c3ncccn3)CC2)c1	> 92.5 µM (inactive)
OCC1(Cc2cccc(C(F)(F)F)c2)CCN(Cc2cc3ccccc3o2)CC1	> 92.5 µM (inactive)
CCn1c(=O)cc(SCC(=O)NCCCN2CCN(c3ccccc3F)CC2)c2ccccc21	> 92.5 µM (inactive)
Clc1ccc(CN2CCN(c3ncccn3)CC2)cc1Cl	> 92.5 µM (inactive)
Brc1ccc(CN2CCN(c3ccccn3)CC2)s1	> 92.5 µM (inactive)
Cn1cc(C(F)(F)F)nc1-c1ccc(OCC(O)CNCCOc2ccc(O)c(C(N)=O)c2)cc1 (centres undefined)	> 92.5 µM (inactive)
COc1cccc(-n2cc(CNCc3cn(C)nc3-c3ccccc3F)cn2)c1	> 92.5 µM (inactive)
NC1CCc2cc(O)c(O)cc2C1 (centres undefined)	> 92.5 µM (inactive)
Oc1ccc(CN2CCN(c3ncccn3)CC2)cc1	> 92.5 µM (inactive)
Clc1ccccc1CN1CCN(c2ccccc2)CC1	> 92.5 µM (inactive)
CCOC(=O)N1CCN(Cc2ccc(OCC(O)CN3CCCCC3)cc2)CC1 (centres undefined)	> 92.5 µM (inactive)
Cc1ccsc1CN1CCN(c2ccccn2)CC1	> 92.5 µM (inactive)

SMILES	EC50
CC(=O)N1CCC(N2CCN(c3ccccc3F)CC2)CC1	> 92.5 µM (inactive)
Fc1cccc(CN2CCN(c3ncccn3)CC2)c1	> 92.5 µM (inactive)
Cc1cccc(CN2CCN(c3ccccn3)CC2)c1	> 92.5 µM (inactive)
CCCN1C[C@H](CSC)C[C@@H]2c3cccc4[nH]cc(c34)C[C@H]21	> 92.5 µM (inactive)
CC(COc1ccccc1)N1CCC(CO)(Cc2ccccc2)CC1 (centres undefined)	> 92.5 µM (inactive)
CCOC(=O)C1CCN(Cc2cccc(Oc3ccc(Cl)cc3)c2)CC1	> 92.5 µM (inactive)
Clc1ccc(CN2CCN(c3ncccn3)CC2)cc1	> 92.5 µM (inactive)
OC(COc1ccc2cc(Br)ccc2c1)CN1CCN(c2ccccn2)CC1 (centres undefined)	> 92.5 µM (inactive)
COc1cc(Br)cc(CN2CCN(c3ncccn3)CC2)c1O	> 92.5 µM (inactive)
Cc1ccc(CN2CCN(c3ncccn3)CC2)o1	> 92.5 µM (inactive)
CC(CCc1ccc(O)cc1)NCCc1ccc(O)c(O)c1 (centres undefined)	> 92.5 µM (inactive)
Cc1ccc(CN2CCN(c3ncccn3)CC2)c(C)c1	> 92.5 µM (inactive)
NC[C@@H]1O[C@H](C23CC4CC(CC(C4)C2)C3)Cc2c1ccc(O)c2O	> 92.5 µM (inactive)
COc1ccc(CN2CCN(c3ccccn3)CC2)c(OC)c1	> 92.5 µM (inactive)
Fc1ccccc1CN1CCN(c2ncccn2)CC1	> 92.5 µM (inactive)
c1ccc(COc2ccc(CN3CCN(c4ccccn4)CC3)cc2)cc1	> 92.5 µM (inactive)
COc1ccc(CC2(CO)CCN(Cc3cc4ccccc4o3)CC2)cc1	> 92.5 µM (inactive)
C=CCN1CCc2nc(N)sc2CC1	> 92.5 µM (inactive)
CCCN(CCC)C1CCc2cccc(O)c2C1 (centres undefined)	> 92.5 µM (inactive)
COc1ccc(CN2CCN(c3ncccn3)CC2)c(OC)c1	> 92.5 µM (inactive)
Clc1ccccc1CN1CCN(c2ncccn2)CC1	> 92.5 µM (inactive)
CC1CC(C)CN(CCOc2cccc(Cl)c2Cl)C1 (centres undefined)	> 92.5 µM (inactive)
COc1cc(CN2CCN(c3ncccn3)CC2)cc(OC)c1	> 92.5 µM (inactive)
CC(=O)N1CCc2cc(C(=O)CN3CCN(c4cccc(Cl)c4)CC3)ccc21	> 92.5 µM (inactive)
CC(C)C[C@H]1C(=O)N2CCC[C@H]2[C@]2(O)O[C@](NC(=O)[C@@H]3C=C4c5cccc6[nH]c(Br)c(c56)CC4N(C)C3)(C(C)C)C(=O)N12 (some centres undefined)	> 92.5 µM (inactive)
O=C(c1ccco1)N1CCN(Cc2ccc(Cl)cc2)CC1	> 92.5 µM (inactive)
Brc1cccc(CN2CCN(c3ncccn3)CC2)c1	> 92.5 µM (inactive)
